Values belong to the compound of their own block, whether it stands above or below them.
Assays:
[1] = target: Histamine H1 receptor (Homo sapiens, UniProt P35367); assay: Selectivity interaction (GPCR panel (PDSP screen)) EUB0001135a HRH1; settings: at 10 µM
[2] = target: T1, G protein-coupled receptor kinase 3 (Homo sapiens) (UniProt P35626); assay: Selectivity interaction (KinomeScan (DiscoverX)) EUB0001135a ADRBK2; settings: at 1 µM
T1 sequence (whole entry): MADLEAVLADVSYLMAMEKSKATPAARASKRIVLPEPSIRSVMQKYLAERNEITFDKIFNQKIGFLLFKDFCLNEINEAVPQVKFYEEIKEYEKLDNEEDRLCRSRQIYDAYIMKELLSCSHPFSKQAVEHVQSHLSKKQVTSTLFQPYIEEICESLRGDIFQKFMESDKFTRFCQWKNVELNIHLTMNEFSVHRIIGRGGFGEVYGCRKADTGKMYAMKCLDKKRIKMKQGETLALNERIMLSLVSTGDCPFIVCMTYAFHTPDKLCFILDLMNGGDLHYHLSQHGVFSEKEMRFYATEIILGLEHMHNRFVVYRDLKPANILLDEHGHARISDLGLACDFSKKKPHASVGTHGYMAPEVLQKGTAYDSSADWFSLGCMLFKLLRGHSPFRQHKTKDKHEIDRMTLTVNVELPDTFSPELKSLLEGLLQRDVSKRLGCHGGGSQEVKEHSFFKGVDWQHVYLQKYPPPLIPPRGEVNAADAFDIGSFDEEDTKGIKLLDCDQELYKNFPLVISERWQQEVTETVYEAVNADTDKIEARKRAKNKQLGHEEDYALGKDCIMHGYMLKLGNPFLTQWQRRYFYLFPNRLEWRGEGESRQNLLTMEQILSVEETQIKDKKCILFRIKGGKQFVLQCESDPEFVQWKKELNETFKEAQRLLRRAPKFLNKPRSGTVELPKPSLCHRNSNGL

[3] = target: G protein-coupled receptor kinase 3 (Homo sapiens, UniProt P35626); assay: Selectivity interaction (KinomeScan (DiscoverX, competition-binding assay)) EUB0001135a ADRBK2
[4] = target: Beta-3 adrenergic receptor (Homo sapiens, UniProt P13945); assay: Selectivity interaction (GPCR panel (PDSP screen)) EUB0001135a ADRB3; settings: at 10 µM
Chain of Beta-3 adrenergic receptor (P13945 whole entry, looked up): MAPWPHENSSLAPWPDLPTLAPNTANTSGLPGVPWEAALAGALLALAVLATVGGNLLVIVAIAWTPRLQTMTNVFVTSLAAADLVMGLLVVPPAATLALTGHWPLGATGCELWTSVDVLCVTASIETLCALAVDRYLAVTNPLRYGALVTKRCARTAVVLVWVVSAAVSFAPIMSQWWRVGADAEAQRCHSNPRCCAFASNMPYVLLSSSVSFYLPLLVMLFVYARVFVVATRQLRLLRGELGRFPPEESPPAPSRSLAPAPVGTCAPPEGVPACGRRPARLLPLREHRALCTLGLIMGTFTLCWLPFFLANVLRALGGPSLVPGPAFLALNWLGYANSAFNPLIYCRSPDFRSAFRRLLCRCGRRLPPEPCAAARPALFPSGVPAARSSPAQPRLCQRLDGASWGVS

[5] = target: T2, Death-associated protein kinase 3 (Homo sapiens, UniProt O43293); assay: Selectivity interaction (KinomeScan (DiscoverX)) EUB0001135a DAPK3; settings: at 1 µM
Target sequence in this assay (O43293 whole entry, looked up): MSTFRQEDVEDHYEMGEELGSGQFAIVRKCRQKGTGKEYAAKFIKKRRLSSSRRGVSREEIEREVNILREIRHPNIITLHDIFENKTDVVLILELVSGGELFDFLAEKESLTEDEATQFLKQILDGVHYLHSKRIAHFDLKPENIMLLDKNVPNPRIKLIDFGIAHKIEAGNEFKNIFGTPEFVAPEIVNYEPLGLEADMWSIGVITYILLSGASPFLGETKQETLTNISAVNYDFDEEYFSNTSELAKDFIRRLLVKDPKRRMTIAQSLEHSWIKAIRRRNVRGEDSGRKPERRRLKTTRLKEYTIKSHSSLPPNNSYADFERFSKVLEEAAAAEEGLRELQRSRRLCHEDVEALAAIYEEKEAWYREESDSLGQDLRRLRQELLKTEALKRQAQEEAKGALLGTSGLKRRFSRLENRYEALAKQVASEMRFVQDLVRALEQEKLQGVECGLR

[6] = target: T2, Death-associated protein kinase 3; assay: Selectivity interaction (KinomeScan (DiscoverX, competition-binding assay)) EUB0001135a DAPK3
Target sequence in this assay (O43293 whole entry): as the sequence (O43293 whole entry, looked up) above

[7] = target: T3, Histone-lysine N-methyltransferase EZH1 (Homo sapiens, UniProt Q92800); assay: Selectivity interaction (Methyltransferase panel (HotSpot screen, Reaction Biology, radioisotope-based filter binding assays)) EUB0000215b EZH1
T3 sequence (Q92800 whole entry): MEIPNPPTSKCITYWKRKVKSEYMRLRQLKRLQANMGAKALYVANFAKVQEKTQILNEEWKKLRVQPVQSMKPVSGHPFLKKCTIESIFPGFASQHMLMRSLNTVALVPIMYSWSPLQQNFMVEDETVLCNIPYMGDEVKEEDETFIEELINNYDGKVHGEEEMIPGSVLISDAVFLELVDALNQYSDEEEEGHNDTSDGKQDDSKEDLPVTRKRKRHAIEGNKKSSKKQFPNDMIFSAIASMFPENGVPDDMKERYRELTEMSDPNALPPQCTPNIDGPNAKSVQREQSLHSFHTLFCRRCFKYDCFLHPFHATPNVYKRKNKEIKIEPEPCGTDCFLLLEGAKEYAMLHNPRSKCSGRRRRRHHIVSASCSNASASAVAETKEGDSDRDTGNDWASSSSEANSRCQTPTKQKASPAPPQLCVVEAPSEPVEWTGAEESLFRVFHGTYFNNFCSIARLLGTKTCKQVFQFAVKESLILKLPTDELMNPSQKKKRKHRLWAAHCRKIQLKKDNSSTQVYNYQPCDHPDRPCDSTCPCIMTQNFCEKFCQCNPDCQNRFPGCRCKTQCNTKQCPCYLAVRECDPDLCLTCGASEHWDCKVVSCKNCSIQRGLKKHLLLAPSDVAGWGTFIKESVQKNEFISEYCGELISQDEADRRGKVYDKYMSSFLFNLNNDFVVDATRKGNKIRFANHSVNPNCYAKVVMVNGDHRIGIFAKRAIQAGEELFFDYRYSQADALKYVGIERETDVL

[8] = target: T4, Alpha-1B adrenergic receptor (Homo sapiens, UniProt P35368); assay: Selectivity interaction (Receptors and enzyme panel (internal screening at GSK)) EUB0000215b ADRA1B
T4 sequence (P35368 whole entry): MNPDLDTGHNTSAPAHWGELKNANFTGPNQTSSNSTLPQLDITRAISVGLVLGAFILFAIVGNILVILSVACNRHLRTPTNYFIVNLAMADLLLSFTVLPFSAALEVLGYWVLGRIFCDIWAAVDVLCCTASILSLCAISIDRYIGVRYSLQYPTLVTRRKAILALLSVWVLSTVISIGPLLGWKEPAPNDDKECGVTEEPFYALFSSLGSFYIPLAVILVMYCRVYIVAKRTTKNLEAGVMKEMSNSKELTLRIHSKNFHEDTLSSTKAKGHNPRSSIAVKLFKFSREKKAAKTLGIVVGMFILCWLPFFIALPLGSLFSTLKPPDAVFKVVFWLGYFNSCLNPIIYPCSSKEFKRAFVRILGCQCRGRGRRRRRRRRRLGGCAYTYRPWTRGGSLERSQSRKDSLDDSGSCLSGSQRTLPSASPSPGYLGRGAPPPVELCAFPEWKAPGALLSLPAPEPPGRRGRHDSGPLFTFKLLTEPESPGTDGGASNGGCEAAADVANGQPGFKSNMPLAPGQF

[9] = target: Sodium-dependent dopamine transporter (Homo sapiens, UniProt Q01959); assay: Selectivity interaction (GPCR panel (PDSP screen)) EUB0000741a SLC6A3
[10] = target: Dual specificity tyrosine-phosphorylation-regulated kinase 1B (Homo sapiens, UniProt Q9Y463); assay: Selectivity interaction (KinomeScan (DiscoverX)) EUB0000297b DYRK1B; settings: at 1 µM
[11] = target: Rho-associated protein kinase 1 (Homo sapiens) (UniProt Q13464); assay: Selectivity interaction (KinomeScan (DiscoverX)) EUB0000297b ROCK1; settings: at 1 µM
[12] = target: T5, Gamma-aminobutyric acid receptor subunit alpha-1 (Homo sapiens, UniProt P14867); assay: Selectivity interaction (GPCR panel (PDSP screen)) EUB0000297b GABRA1
T5 sequence (P14867 whole entry): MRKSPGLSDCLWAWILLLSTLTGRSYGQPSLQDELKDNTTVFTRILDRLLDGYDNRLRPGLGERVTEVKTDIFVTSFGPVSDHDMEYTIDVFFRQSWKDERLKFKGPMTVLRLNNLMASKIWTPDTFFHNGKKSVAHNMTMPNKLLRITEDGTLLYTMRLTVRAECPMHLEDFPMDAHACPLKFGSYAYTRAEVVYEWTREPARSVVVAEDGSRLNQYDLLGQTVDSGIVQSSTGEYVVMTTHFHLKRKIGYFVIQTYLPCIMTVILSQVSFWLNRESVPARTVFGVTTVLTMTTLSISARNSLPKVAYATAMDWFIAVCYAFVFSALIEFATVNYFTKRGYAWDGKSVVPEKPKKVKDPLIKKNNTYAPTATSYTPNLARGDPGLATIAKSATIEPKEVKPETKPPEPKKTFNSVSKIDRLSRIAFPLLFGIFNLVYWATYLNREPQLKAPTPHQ

[13] = target: Transcription initiation factor TFIID subunit 1 (Homo sapiens, UniProt P21675); assay: Selectivity interaction (BRD panel (HTRF assay)) EUB0000007b TAF1
Chain of Transcription initiation factor TFIID subunit 1 (P21675 whole entry, the tested form may be a part): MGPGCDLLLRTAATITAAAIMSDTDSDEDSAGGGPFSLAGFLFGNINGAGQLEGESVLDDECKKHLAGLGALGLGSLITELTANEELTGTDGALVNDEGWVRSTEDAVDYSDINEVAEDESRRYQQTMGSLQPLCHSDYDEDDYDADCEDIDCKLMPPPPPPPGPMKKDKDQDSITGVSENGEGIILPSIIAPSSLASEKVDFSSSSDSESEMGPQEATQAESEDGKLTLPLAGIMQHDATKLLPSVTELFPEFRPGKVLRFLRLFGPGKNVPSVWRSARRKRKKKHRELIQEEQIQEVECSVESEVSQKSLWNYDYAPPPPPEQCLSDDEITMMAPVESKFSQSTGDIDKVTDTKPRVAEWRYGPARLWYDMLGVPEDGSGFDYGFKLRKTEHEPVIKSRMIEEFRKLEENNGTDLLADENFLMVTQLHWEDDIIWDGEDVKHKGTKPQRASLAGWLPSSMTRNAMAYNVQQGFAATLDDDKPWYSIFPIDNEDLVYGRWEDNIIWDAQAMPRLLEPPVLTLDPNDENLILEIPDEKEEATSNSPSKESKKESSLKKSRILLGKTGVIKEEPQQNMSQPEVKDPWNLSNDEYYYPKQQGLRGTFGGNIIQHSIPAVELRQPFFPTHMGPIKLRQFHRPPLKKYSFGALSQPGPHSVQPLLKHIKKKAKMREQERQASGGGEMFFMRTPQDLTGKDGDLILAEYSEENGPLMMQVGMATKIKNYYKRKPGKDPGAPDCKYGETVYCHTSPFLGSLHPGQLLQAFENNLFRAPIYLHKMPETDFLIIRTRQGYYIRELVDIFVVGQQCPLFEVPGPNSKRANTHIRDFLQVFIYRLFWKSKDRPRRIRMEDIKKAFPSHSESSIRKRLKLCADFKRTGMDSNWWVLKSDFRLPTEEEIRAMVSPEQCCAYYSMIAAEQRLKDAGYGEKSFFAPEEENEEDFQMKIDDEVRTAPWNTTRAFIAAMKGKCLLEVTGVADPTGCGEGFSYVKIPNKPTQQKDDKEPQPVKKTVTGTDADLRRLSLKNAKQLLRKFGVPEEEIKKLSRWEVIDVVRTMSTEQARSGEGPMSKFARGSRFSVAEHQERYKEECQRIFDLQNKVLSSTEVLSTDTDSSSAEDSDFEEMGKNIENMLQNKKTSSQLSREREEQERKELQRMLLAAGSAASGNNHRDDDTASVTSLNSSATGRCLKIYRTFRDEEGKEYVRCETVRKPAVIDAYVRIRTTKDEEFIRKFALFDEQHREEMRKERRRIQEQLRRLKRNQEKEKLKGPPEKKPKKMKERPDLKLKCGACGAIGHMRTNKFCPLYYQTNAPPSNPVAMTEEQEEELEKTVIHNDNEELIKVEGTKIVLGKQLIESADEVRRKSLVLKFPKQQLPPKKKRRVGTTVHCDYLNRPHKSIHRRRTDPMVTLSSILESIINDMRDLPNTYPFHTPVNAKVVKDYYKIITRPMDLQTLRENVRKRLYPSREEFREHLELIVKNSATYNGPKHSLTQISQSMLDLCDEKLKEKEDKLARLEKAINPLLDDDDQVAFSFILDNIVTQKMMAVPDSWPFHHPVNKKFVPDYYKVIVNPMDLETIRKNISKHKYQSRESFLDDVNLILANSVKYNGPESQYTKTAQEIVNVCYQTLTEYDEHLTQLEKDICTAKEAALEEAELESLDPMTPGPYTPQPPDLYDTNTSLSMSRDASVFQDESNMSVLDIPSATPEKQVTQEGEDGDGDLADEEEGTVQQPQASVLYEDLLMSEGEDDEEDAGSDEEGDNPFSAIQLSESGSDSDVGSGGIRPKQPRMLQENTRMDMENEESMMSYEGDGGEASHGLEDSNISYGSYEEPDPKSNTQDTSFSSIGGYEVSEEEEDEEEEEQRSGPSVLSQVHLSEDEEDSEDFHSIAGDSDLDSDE

[14] = target: Phosphatidylinositol 3-kinase C2 domain-containing subunit gamma (Homo sapiens) (UniProt O75747); assay: Selectivity interaction (KinomeScan (DiscoverX)) EUB0000007b PIK3C2G; settings: at 1 µM
[15] = target: Vascular endothelial growth factor receptor 2 (Homo sapiens, UniProt P35968); assay: Selectivity interaction (Kinase panel (enzymatic assay)) EUB0000153b KDR
[16] = target: Inhibitor of nuclear factor kappa-B kinase subunit alpha (Homo sapiens, UniProt O15111); assay: Selectivity interaction (Kinase panel (enzymatic assay)) EUB0000153b CHUK
[17] = target: Ribosomal protein S6 kinase alpha-6 (Homo sapiens) (UniProt Q9UK32); assay: Selectivity interaction (Kinase panel (Millipore)) EUB0000153b RPS6KA6; settings: at 10 µM
[18] = target: Tyrosine-protein kinase SYK (Homo sapiens, UniProt P43405); assay: Selectivity interaction (Kinase panel (enzymatic assay)) EUB0000153b SYK
[19] = target: Rho-associated protein kinase 2 (Homo sapiens) (UniProt O75116); assay: Selectivity interaction (Kinase panel (Millipore)) EUB0000153b ROCK2; settings: at 10 µM
[20] = target: Serine/threonine-protein kinase Sgk2 (Homo sapiens) (UniProt Q9HBY8); assay: Selectivity interaction (Kinase panel (Millipore)) EUB0000153b SGK2; settings: at 10 µM
[21] = target: RAC-alpha serine/threonine-protein kinase (Homo sapiens, UniProt P31749); assay: Selectivity interaction (Kinase panel (enzymatic assay)) EUB0000153b AKT1
Chain of RAC-alpha serine/threonine-protein kinase (P31749 whole entry): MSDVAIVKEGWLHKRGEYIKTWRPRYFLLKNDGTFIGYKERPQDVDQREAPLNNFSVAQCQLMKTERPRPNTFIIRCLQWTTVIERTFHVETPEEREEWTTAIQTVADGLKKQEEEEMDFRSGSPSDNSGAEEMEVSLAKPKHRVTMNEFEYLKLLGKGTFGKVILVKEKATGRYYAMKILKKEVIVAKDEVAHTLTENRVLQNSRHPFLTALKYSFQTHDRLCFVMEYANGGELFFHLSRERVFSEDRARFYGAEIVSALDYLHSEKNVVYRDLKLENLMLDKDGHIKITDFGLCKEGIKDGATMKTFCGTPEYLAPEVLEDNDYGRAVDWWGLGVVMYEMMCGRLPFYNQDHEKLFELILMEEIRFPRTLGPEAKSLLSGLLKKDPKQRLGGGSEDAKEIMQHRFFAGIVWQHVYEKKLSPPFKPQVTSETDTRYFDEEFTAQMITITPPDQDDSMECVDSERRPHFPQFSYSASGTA

[22] = target: Glycogen synthase kinase-3 beta (Homo sapiens, UniProt P49841); assay: Selectivity interaction (Kinase panel (enzymatic assay)) EUB0000153b GSK3B
[23] = target: cAMP-dependent protein kinase catalytic subunit PRKX (Homo sapiens) (UniProt P51817); assay: Selectivity interaction (Kinase panel (Millipore)) EUB0000153b PRKX; settings: at 10 µM
[24] = target: Phosphatidylinositol 4,5-bisphosphate 3-kinase catalytic subunit gamma isoform (Homo sapiens, UniProt P48736); assay: Selectivity interaction (Kinase panel (enzymatic assay)) EUB0000153b PIK3CG
[25] = target: T6, Serine/threonine-protein kinase Sgk1 (Homo sapiens) (UniProt O00141); assay: Selectivity interaction (Kinase panel (Millipore)) EUB0000153b SGK1; settings: at 10 µM
T6 sequence (whole entry): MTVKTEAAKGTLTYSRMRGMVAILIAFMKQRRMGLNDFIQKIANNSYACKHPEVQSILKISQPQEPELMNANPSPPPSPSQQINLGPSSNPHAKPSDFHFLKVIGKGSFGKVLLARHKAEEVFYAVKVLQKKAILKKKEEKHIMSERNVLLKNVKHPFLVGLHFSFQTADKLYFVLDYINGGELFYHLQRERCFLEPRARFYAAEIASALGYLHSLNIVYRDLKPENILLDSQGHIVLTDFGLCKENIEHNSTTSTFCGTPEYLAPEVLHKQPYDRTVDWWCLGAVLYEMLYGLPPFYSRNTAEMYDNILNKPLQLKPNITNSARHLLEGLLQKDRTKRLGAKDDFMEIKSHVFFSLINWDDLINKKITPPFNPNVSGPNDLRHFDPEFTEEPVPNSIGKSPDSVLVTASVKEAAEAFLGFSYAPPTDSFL

[26] = target: Mitogen-activated protein kinase kinase kinase 5 (Homo sapiens, UniProt Q99683); assay: Selectivity interaction (Kinase panel (enzymatic assay)) EUB0000153b MAP3K5
[27] = target: NUAK family SNF1-like kinase 1 (Homo sapiens) (UniProt O60285); assay: Selectivity interaction (Kinase panel (Millipore)) EUB0000153b NUAK1; settings: at 10 µM
[28] = target: TGF-beta receptor type-1 (Homo sapiens, UniProt P36897); assay: Selectivity interaction (Kinase panel (enzymatic assay)) EUB0000153b TGFBR1
[29] = target: Ribosomal protein S6 kinase alpha-2 (Homo sapiens) (UniProt Q15349); assay: Selectivity interaction (Kinase panel (Millipore)) EUB0000153b RPS6KA2; settings: at 10 µM
Chain of Ribosomal protein S6 kinase alpha-2 (Homo sapiens) (Q15349 whole entry, looked up): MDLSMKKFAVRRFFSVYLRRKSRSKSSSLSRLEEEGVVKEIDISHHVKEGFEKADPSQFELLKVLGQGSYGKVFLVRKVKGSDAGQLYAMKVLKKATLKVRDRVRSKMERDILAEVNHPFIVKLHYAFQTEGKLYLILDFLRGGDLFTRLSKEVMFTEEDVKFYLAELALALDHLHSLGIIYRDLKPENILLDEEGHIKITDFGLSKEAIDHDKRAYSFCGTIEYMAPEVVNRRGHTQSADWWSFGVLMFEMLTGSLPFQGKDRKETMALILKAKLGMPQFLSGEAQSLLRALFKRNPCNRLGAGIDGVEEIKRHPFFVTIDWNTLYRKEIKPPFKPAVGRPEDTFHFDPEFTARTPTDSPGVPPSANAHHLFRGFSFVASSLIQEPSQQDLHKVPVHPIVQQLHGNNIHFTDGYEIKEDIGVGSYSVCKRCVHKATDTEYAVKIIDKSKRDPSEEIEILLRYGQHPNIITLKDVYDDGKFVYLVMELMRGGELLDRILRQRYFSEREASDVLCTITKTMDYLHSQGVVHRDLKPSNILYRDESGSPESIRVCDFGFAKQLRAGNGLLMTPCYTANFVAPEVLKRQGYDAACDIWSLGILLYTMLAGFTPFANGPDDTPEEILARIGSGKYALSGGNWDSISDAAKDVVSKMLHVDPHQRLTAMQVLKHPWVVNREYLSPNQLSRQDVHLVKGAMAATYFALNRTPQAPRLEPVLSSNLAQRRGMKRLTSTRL

[30] = target: Dual specificity mitogen-activated protein kinase kinase 2 (Homo sapiens, UniProt P36507); assay: Selectivity interaction (Kinase panel (enzymatic assay)) EUB0000684a MAP2K2
Chain of Dual specificity mitogen-activated protein kinase kinase 2 (P36507 whole entry): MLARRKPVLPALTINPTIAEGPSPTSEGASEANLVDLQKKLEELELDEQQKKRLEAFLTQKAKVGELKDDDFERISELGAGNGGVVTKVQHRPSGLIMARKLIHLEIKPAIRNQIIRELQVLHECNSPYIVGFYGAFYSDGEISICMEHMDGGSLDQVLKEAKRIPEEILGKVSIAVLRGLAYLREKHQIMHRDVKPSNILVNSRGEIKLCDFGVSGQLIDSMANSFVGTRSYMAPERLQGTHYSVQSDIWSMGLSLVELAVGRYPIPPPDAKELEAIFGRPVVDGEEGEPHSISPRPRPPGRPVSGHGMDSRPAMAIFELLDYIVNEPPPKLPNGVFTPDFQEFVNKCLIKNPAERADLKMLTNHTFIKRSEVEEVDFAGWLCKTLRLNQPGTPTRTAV

[31] = target: Dual specificity mitogen-activated protein kinase kinase 1 (Homo sapiens, UniProt Q02750); assay: Selectivity interaction (Kinase panel (enzymatic assay)) EUB0000684a MAP2K1
[32] = target: Epidermal growth factor receptor (Homo sapiens, UniProt P00533); settings: at 1 µM
[33] = target: Sodium channel regulatory subunit beta-2 (Homo sapiens, UniProt O60939); assay: Selectivity interaction (Enzyme and Receptor panel (MSD Pharma/Taiwan)) EUB0000753a SCN2B
[34] = target: Mitogen-activated protein kinase kinase kinase kinase 5 (Homo sapiens) (UniProt Q9Y4K4); settings: at 1 µM
[35] = target: Activin receptor type-2A (Homo sapiens) (UniProt P27037); settings: at 1 µM
[36] = target: Mitogen-activated protein kinase kinase kinase kinase 4 (Homo sapiens) (UniProt O95819); settings: at 1 µM

Chain of Histamine H1 receptor (P35367 whole entry): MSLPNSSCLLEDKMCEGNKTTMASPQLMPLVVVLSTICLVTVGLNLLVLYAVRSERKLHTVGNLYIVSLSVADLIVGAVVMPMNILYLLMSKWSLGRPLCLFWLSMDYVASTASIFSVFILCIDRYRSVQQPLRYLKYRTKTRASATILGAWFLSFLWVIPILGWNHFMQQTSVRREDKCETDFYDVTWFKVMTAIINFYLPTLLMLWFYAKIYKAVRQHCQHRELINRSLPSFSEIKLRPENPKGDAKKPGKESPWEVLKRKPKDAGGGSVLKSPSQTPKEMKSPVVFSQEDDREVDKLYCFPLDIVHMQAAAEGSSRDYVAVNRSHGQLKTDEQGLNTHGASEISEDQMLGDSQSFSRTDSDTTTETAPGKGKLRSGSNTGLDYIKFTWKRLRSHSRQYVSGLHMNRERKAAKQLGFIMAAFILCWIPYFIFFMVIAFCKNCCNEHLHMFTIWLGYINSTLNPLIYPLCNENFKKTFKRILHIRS

SMILES: CCCc1cc(C)[nH]c(=O)c1CNC(=O)c1cc(-c2ccnc(N3CCN(C)CC3)c2)cc2c1cnn2C(C)C
IC50 [7]: 0.24 µM | IC50 [8]: 10 µM

SMILES: CC(C)(C)OC(=O)N1CCCC1CNC1CCC(c2cc(F)ccc2F)(S(=O)(=O)c2ccc(Cl)cc2)CC1 (stereo unspecified) [GSI-NC]
Ki [9]: > 10 µM

SMILES: CN(C)C(=O)/C(C#N)=C/c1ccc(-c2nc3cnc4c(ccn4C)c3n2C2CCCCC2)o1
IC50 [13]: 0.17 µM | % of control [14]: 82%

SMILES: CNc1nc(-c2ccc3c(N)n[nH]c3c2)cc(N2C[C@@H](C(=O)NC3CCCCC3)CC[C@H]2C)n1
IC50 [15]: > 10 µM | IC50 [16]: > 10 µM | % of control [17]: 12% | IC50 [18]: > 10 µM | % of control [19]: 17% | % of control [20]: 0% | IC50 [21]: > 10 µM | IC50 [22]: > 10 µM | % of control [23]: 4% | IC50 [24]: > 10 µM | % of control [25]: 13% | IC50 [26]: > 10 µM | % of control [27]: 16% | IC50 [28]: > 10 µM | % of control [29]: 14%

SMILES: O=C(c1ccc(F)c(F)c1Nc1ccc(I)cc1F)N1CC(O)([C@@H]2CCCCN2)C1 [COBIMETINIB]
IC50 [30]: 0.023 µM | IC50 [31]: 0.031 µM

SMILES: COc1cc(-c2cn([C@H]3CCc4c(F)cccc4N(CC(F)(F)F)C3=O)nn2)ccc1-n1cnc(C)c1
% of control [32]: 0% | IC50 [33]: 1 µM | % of control [34]: 5.8% | % of control [35]: 0% | % of control [36]: 0%

More lines, main results first:

% of inhibition [1]: 49.9% | % of control [2]: 42% | Kd [3]: > 10 µM | % of inhibition [4]: 32.4%
SMILES: O=C1NC(c2ccccn2)Sc2ccccc21 (stereo unspecified) [BTZO-4]
% of control [5]: 0% | Kd [6]: > 10 µM

% of control [10]: 44% | % of control [11]: 34% | Ki [12]: 1.11 µM
SMILES: CN([C@@H]1CCc2c(CC(=O)O)c3ccccc3n2C1)S(=O)(=O)c1ccc(F)cc1 [MK-7246]
